{
  "source": "patent US20230304010A1",
  "about": "“COMPOSITIONS AND METHODS FOR TREATING VIRAL INFECTIONS” (priority 2020, published 2023)",
  "key": {"[1]": {"test": "Lung and liver toxicity studies after intratracheal instillation", "details": "mouse, in vivo", "description": "Single dose of peptides or peptide/siRNA complexes were administrated via intratracheal instillation (200 μg) (Table 20). Saline solution was used as negative control. Samples were collected 12, 24, 48 and 72 hr post administration.\nThe body weight of the mice were recorded before intratracheal instillation (day 0), at day1, day 2 and before being sacrificed (day 3). The lung, liver, heart, kidney and brain were collected at day 3 and organ index were determined.\nBronchoalveolar lavage (BAL) were performed 2 days after instillation. The percentage of the cells, the total protein and level of LDH in the BAL were analyzed.\nAST and ALT levels in the plasma were assayed 2 days after instillation."}, "[2]": {"molecular_target": "ACE2:SARS-CoV-2 Spike interaction (UniProt P0DTC2+Q9BYF1)", "sequence (Q9BYF1 18-740, one chain of several)": "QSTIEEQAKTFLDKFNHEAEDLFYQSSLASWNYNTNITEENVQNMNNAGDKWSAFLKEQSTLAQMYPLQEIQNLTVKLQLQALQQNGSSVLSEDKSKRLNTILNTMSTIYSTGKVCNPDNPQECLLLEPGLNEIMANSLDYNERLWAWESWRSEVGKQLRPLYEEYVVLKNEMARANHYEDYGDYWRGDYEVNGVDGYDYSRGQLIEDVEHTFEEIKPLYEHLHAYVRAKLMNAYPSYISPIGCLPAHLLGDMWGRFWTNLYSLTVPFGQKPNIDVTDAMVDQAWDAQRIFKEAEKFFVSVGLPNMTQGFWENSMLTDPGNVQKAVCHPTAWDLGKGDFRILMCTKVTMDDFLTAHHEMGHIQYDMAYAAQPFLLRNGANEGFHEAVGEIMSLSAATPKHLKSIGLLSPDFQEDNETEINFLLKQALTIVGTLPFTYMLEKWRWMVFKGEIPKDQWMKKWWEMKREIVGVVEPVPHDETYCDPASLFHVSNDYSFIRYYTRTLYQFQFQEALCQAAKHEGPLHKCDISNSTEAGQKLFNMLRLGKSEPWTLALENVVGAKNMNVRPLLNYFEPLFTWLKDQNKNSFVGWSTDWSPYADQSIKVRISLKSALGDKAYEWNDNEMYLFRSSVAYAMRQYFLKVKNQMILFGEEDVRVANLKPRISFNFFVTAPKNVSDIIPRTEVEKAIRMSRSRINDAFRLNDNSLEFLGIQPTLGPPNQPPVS", "test": "biochemical", "type": "binding", "details": "IC50, SARS-COV2"}, "[3]": {"test": "In vivo lung biodistribution after intratracheal instillation (fluorescence imaging, confocal microscopy)", "details": "administrated intratracheally", "experimental": "To monitor DIVC-6 siRNA biodistribution, the siRNA was labelled with Cy-5.5.\nIn vivo lung biodistribution study was performed in healthy 4 weeks old male C57BL/6J mice. Single dose of peptides or peptide/siRNA complexes were administrated via intratracheal instillation (200 μg) (Table 20). The fluorescence was evaluated by non-invasive in vivo whole-body fluorescence imaging at T0, 1 h, 2 h, 6 h, 24 h, 48 h and 72 hr post injection. Fluorescence images were acquired with the IVIS kinetic system (PerkinElmer) (ex: 640±17 nm; em: 680±10 nm) and semi-quantitative data were obtained from the fluorescence images by using the Living image software (Caliper 2D).\nFurther analysis of the lung distribution of the different compounds was performed by confocal microscopy. Lungs were collected at 4 hr, 24 hr and 72 hr post administration, fixed in formaldehyde 4% in Glucose 5%. Tissues were stained with Mito tracker red and nucleus with Hoesch."}, "in vitro": {"test": "in vitro", "details": "uninfected Vero E6 cells"}, "[4]": {"test": "Nanoparticle formation of peptides with ADGN-106: mean size and polydispersity (Zetasizer)", "type": "physicochemical", "details": "25° C.", "excerpt": "We then tested the ability of the different peptides to form nanoparticle organization in the presence of ADGN-106 or ADGN-100 peptide. […] Peptides were complexed with 5 or 10 molar excess of ADGN-106."}, "SARS-CoV-2 [5]": {"tested_on": "SARS-CoV-2"}, "[6]": {"molecular_target": "SARS-CoV-2 Spike: ACE2 interaction (UniProt P0DTC2+Q9BYF1)", "sequence (Q9BYF1 18-740, one chain of several)": "as above", "test": "biochemical", "type": "binding"}, "SARS-CoV-2 [7]": {"tested_on": "SARS-CoV-2", "remark": "listed apart in the source"}},
  "note": "Where two headings read alike, the source gives them in different places.",
  "data": [
    {"compound": "CC(=O)N[C@@H](CCC(=O)O)C(=O)N[C@@H](CCC(N)=O)C(=O)N[C@@H](C)C(=O)N[C@@H](CCCCN)C(=O)N[C@H](C(=O)N[C@@H](Cc1ccccc1)C(=O)N[C@@H](CC(C)C)C(=O)N[C@@H](CC(=O)O)C(=O)N[C@@H](CCCCN)C(=O)N[C@@H](Cc1ccccc1)C(=O)N[C@@H](CC(N)=O)C(=O)N[C@@H](Cc1c[nH]cn1)C(=O)N[C@@H](CCC(=O)O)C(=O)N[C@@H](C)C(=O)N[C@@H](CCC(=O)O)C(=O)N[C@@H](CC(=O)O)C(=O)N[C@@H](CC(C)C)C(=O)N[C@@H](Cc1ccccc1)C(=O)NCCCCCC(=O)N[C@@H](CC(C)C)C(=O)N[C@@H](Cc1c[nH]c2ccccc12)C(=O)N[C@@H](CCCNC(=N)N)C(=O)N[C@@H](C)C(=O)N[C@@H](CC(C)C)C(=O)N[C@@H](Cc1c[nH]c2ccccc12)C(=O)N[C@@H](CCCNC(=N)N)C(=O)N[C@@H](CC(C)C)C(=O)N[C@@H](Cc1c[nH]c2ccccc12)C(=O)N[C@@H](CCCNC(=N)N)C(=O)N[C@@H](CO)C(=O)N[C@@H](CC(C)C)C(=O)N[C@@H](Cc1c[nH]c2ccccc12)C(=O)N[C@@H](CCCNC(=N)N)C(=O)N[C@@H](CC(C)C)C(=O)N[C@@H](CC(C)C)C(=O)N[C@@H](Cc1c[nH]c2ccccc12)C(=O)N[C@@H](CCCCN)C(N)=O)[C@@H](C)O", "note": "[Seq33]", "values": [
      {"measurement": "lung and liver toxicity associated to treatment", "setting": "[1]", "value": "no lung and liver toxicity"},
      {"measurement": "tolerability upon intratracheal administration", "setting": "[1]", "value": "well tolerated"},
      {"measurement": "IC50", "setting": "[2]", "value": "18.4 ± 11", "unit": "nM"},
      {"measurement": "lung targeting and tissue penetration", "setting": "[3]", "value": "significantly penetrate lung tissue"},
      {"measurement": "CC50", "setting": "in vitro", "value": "510000 ± 31000", "unit": "nM"},
      {"measurement": "viability at 0.5 µM", "setting": "in vitro", "value": 94, "unit": "%"},
      {"measurement": "Mean Size (nm)", "setting": "[4]; peptide/ADGN-106 complexes", "value": "45.9 ± 10", "unit": "nm"},
      {"measurement": "PI", "setting": "[4]; polydispersity index of peptide/ADGN-106 complexes", "value": 0.24},
      {"measurement": "IC50", "setting": "SARS-CoV-2 [5]; read-out: SARS-COV2 IC50, original strain, second Table 19, siRNA complexed at molar ratio 1/20", "value": "21.7 ± 8", "unit": "nM"},
      {"measurement": "IC50", "setting": "SARS-CoV-2 [5]; treatments added to Vero-E6 immediately prior to virus infection, Table 16", "value": "22.9 ± 8", "unit": "nM"},
      {"measurement": "folds more potent than SBP-1-ADGN-106/ADGN-106 complex", "setting": "[6]", "value": 4, "unit": "folds"},
      {"measurement": "folds more potent than SBP-1 coupled to ADGN-106", "setting": "[6]", "value": 8, "unit": "folds"},
      {"measurement": "folds more potent than SBP-1 peptide/ADGN-106 complex", "setting": "[6]", "value": 35, "unit": "folds"},
      {"measurement": "folds more potent than free SBP-1", "setting": "[6]", "value": 14, "unit": "folds"},
      {"measurement": "IC50", "setting": "[6]; SARS-CoV-2 Spike:ACE2 IC50", "value": "178 ± 14", "unit": "nM"},
      {"measurement": "Residual Infection (%)", "setting": "SARS-CoV-2 [7]", "value": 15, "unit": "%"},
      {"measurement": "fold stronger anti-SARS-CoV-2 activity than hydroxychloroquine sulfate", "setting": "SARS-CoV-2 [7]", "value": 250, "unit": "fold"},
      {"measurement": "increase of potency by pre-incubation with SARS CoV-2 prior infection", "setting": "SARS-CoV-2 [7]", "value": 2, "unit": "factor"},
      {"measurement": "inhibition of viral infection", "setting": "SARS-CoV-2 [7]", "value": "exhibit inhibition of viral infection"}
    ]}
  ]
}
